Results taken from patent US20250049970A1, “DLL3 TARGETING PEPTIDES AND CONSTRUCTS THEREOF” (MARIANA ONCOLOGY INC., priority 2023, published 2025).
*1 amine or outer side, *2 acyl side, *3 side chain or, on linkers, in order; H or OH if unused. Where a SMILES comes first, the peptide text is derived from it. Bridges are numbered along the chain shown (N, C = ends). [ ]: non-standard residue; d: D form. The star is where a group is joined. Ala(piperidin-4-yl) = O=C([C@H](CC1CCN([*:3])CC1)N[*:1])[*:2]; DOTA = O=C(O)CN1CCN(CC(=O)O)CCN(CC(=O)*)CCN(CC(=O)O)CC1; 2Nal = N[C@@H](Cc1ccc2ccccc2c1)C(=O)O; mXylylene = c1cc(C[*:1])cc(C[*:2])c1; oXylylene = c1ccc(C[*:2])c(C[*:1])c1; Chg = N[C@H](C(=O)O)C1CCCCC1; NMeNle = CCCC[C@H](NC)C(=O)O; CH2 = C([*:1])[*:2]

biological target: T1, DLL3 (Homo sapiens, UniProt Q9NYJ7); test: SPR KD, biotinylated human DLL3 on streptavidin chip (Table 8); set-up: biotin (biotinylated); details: biotinylated human DLL3 on streptavidin sensor chip, 25° C., 1:1 binding model; read-out: SPR KD
T1 sequence (Q9NYJ7 27-618): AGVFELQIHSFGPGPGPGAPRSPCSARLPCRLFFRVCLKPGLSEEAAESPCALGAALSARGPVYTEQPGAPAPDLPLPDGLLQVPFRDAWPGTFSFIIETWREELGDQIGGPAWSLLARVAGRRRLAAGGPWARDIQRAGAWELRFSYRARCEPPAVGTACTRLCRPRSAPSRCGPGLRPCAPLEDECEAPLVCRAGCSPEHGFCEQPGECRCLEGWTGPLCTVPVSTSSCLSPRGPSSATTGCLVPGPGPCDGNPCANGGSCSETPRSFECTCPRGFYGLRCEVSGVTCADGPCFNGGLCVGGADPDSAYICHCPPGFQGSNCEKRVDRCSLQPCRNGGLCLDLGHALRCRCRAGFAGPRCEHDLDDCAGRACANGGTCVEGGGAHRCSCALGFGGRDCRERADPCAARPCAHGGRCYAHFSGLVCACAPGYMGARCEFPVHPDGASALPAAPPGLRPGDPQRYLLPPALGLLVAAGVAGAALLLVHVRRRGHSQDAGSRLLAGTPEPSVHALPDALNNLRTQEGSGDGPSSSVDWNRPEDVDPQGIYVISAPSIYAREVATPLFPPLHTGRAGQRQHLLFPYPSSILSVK
From the text: Biotinylated target ligand human DLL3 was immobilized on a streptavidin sensor chip. A reference surface was set up for nonspecific binding and refractive index changes. […] Sensorgram curves were fitted with 1:1 binding model, and affinity and kinetic parameters were obtained using Biacore Insight evaluation 4.0. software.

Structure (SMILES)	Kd [nM]
CC(=O)N[C@@H](Cc1c[nH]c2ccccc12)C(=O)N[C@H](C(=O)N[C@H](C(=O)N[C@H]1CSCSC[C@@H](C(=O)N[C@@H](Cc2c[nH]c3ccccc23)C(=O)N2CCC[C@H]2C(N)=O)NC(=O)[C@H](CC(=O)O)NC(=O)[C@H](CCCCNC(=O)CN2CCN(CC(=O)O)CCN(CC(=O)O)CCN(CC(=O)O)CC2)NC(=O)[C@H](Cc2ccc3ccccc3c2)NC(=O)[C@H](CC(N)=O)NC(=O)[C@H](CC2CCNCC2)NC1=O)C1CCCCC1)[C@@H](C)O [compound 398, Ac-W-T-(Chg)-C(1)-[3-(4-piperidinyl)-Ala]-N-(2Nal)-Lys(DOTA)-D-C(1)-W-P-CONH2] (Ac-WT[Chg]C[Ala(piperidin-4-yl)]N[2Nal]K(DOTA)DCWP-NH2; linker 4-10 via CH2)	< 1
CC(=O)N[C@@H](Cc1c[nH]c2ccccc12)C(=O)N[C@H](C(=O)N[C@H](C(=O)N[C@H]1CSCSC[C@@H](C(=O)N[C@@H](Cc2c[nH]c3ccccc23)C(=O)N2CCC[C@H]2C(N)=O)NC(=O)[C@H]([C@@H](C)O)NC(=O)[C@H](CCCCNC(=O)CN2CCN(CC(=O)O)CCN(CC(=O)O)CCN(CC(=O)O)CC2)NC(=O)[C@H](Cc2ccc3ccccc3c2)NC(=O)[C@H](CC(N)=O)NC(=O)[C@H](CC2CCNCC2)NC1=O)C1CCCCC1)[C@@H](C)O [compound 399, Ac-W-T-(Chg)-C(1)-[3-(4-piperidinyl)-Ala]-N-(2Nal)-Lys(DOTA)-(Thr)-C(1)-W-P-CONH2] (Ac-WT[Chg]C[Ala(piperidin-4-yl)]N[2Nal]K(DOTA)TCWP-NH2; linker 4-10 via CH2)	< 1
CCCC[C@@H](C(=O)N[C@H]1CSCSC[C@@H](C(=O)N[C@@H](Cc2c[nH]c3ccccc23)C(=O)N2CCC[C@H]2C(N)=O)NC(=O)[C@H](CC(=O)O)NC(=O)[C@H](CCCCNC(=O)CN2CCN(CC(=O)O)CCN(CC(=O)O)CCN(CC(=O)O)CC2)NC(=O)[C@H](Cc2ccc3ccccc3c2)NC(=O)[C@H](CC(N)=O)NC(=O)[C@H](CC2CCNCC2)NC1=O)N(C)C(=O)[C@@H](NC(=O)[C@H](Cc1c[nH]c2ccccc12)NC(C)=O)[C@@H](C)O [compound 400, Ac-W-T-(NMe-Nle)-C(1)-[3-(4-piperidinyl)-Ala]-N-(2Nal)-Lys(DOTA)-D-C(1)-W-P-CONH2] (Ac-WT[NMeNle]C[Ala(piperidin-4-yl)]N[2Nal]K(DOTA)DCWP-NH2; linker 4-10 via CH2)	< 1
CC(=O)N[C@@H](Cc1c[nH]c2ccccc12)C(=O)N[C@H](C(=O)N[C@H](C(=O)N[C@H]1CSCc2ccccc2CSC[C@@H](C(=O)N[C@@H](Cc2c[nH]c3ccccc23)C(=O)N2CCC[C@H]2C(N)=O)NC(=O)[C@H](CC(=O)O)NC(=O)[C@H](CCCCNC(=O)CN2CCN(CC(=O)O)CCN(CC(=O)O)CCN(CC(=O)O)CC2)NC(=O)[C@H](Cc2ccc3ccccc3c2)NC(=O)[C@H](CC(N)=O)NC(=O)[C@H](CC2CCNCC2)NC1=O)C1CCCCC1)[C@@H](C)O [compound 401, Ac-W-T-(Chg)-C(oDBX)-[3-(4-piperidinyl)-Ala]-N-(2Nal)-Lys(DOTA)-D-C(3)-W-P-CONH2] (Ac-WT[Chg]C[Ala(piperidin-4-yl)]N[2Nal]K(DOTA)DCWP-NH2; linker 4-10 via oXylylene)	1 to 10
CC(=O)N[C@@H](Cc1c[nH]c2ccccc12)C(=O)N[C@H](C(=O)N[C@H](C(=O)N[C@H]1CSCc2cccc(c2)CSC[C@@H](C(=O)N[C@@H](Cc2c[nH]c3ccccc23)C(=O)N2CCC[C@H]2C(N)=O)NC(=O)[C@H](CC(=O)O)NC(=O)[C@H](CCCCNC(=O)CN2CCN(CC(=O)O)CCN(CC(=O)O)CCN(CC(=O)O)CC2)NC(=O)[C@H](Cc2ccc3ccccc3c2)NC(=O)[C@H](CC(N)=O)NC(=O)[C@H](CC2CCNCC2)NC1=O)C1CCCCC1)[C@@H](C)O [compound 402, Ac-W-T-(Chg)-C(mDBX)-[3-(4-piperidinyl)-Ala]-N-(2Nal)-Lys(DOTA)-D-C(3)-W-P-CONH2] (Ac-WT[Chg]C[Ala(piperidin-4-yl)]N[2Nal]K(DOTA)DCWP-NH2; linker 4-10 via mXylylene)	100 to 300
